Some results are limits rather than exact numbers.

In the test the target is T1, SIRT1 (Homo sapiens, UniProt Q96EB6).
T1 sequence (Q96EB6 1-747): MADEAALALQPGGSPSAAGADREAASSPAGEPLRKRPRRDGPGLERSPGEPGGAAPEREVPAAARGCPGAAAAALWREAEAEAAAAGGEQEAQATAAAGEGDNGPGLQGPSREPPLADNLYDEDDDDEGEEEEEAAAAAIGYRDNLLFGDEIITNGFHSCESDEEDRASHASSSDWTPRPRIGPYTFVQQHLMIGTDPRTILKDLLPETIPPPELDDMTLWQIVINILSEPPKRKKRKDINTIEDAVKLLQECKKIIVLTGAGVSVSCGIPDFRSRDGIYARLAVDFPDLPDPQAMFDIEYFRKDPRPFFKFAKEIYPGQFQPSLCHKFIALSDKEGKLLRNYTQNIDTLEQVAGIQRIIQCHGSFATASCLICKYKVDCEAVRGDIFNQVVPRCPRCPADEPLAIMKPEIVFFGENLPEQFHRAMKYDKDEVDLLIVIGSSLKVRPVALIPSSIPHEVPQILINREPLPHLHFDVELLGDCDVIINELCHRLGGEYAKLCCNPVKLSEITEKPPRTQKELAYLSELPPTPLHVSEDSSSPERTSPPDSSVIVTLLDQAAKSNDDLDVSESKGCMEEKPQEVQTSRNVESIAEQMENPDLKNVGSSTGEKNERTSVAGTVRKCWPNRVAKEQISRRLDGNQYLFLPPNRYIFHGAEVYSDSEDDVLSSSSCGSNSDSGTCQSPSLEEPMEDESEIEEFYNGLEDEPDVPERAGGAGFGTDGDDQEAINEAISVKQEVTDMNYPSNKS
Nature of the test: Mass spectrometry based assay to identify modulators of SIRT1 activity (deacetylation of p53-based acetylated peptide substrate). It is filed as biochemical. Particulars: for Emax: 25 min, read-out: % FOLD ACT. (percent maximum fold activation); for Emax / EC1.5: SIRT1 activation. In short, it runs like this: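 Deacetylation of a modified p53 acetyl-lysine peptide ([…], 5TMR-labelled, Nle for Met) by 10 nM N-His SIRT1 with 120 μM βNAD+, pH 8, 25 min, 25 °C. Substrate and product masses measured by MS after formic acid quench; nicotinamide defines maximal inhibition.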

As to `O=C(NC1(c2ccccn2)CC1)N1CCOc2ccc(-c3cccc(C(F)(F)F)c3)nc21` [Compound 633, N-(1-(pyridin-2-yl)cyclopropyl)-6-(3-(trifluoromethyl)phenyl)-2H-pyrido[3,2-b][1,4]oxazine-4(3H)-carboxamide], the Emax was not above 200% and the EC1.5 entry is given as “C (EC1.5>25 μM)”.

`Cc1cc(NC(=O)N2CCCOc3ccc(-c4cccc(C(F)(F)F)c4)nc32)ccn1` [Compound 577]: the Emax is more than 200% and the EC1.5 result was “B (EC1.5 1-25 μM)”.

For the molecule `O=C(Nc1ccncc1)N1CCOc2ccc(-c3ccccc3)nc21` [Compound 673], the Emax was more than 200% and the EC1.5 result is recorded as “A (EC1.5<1.0 μM)”.

In the case of `CCN1CCCN(C(=O)Nc2ccncc2F)c2nc(-c3cccc(Cl)c3)ccc21` [Compound 808], the EC1.5 (concentration giving 1.5-fold activation) is 1 to 25 µM and the Emax is more than 200%.

Consider `CN1C(=O)CN(C(=O)Nc2cccc(N3CCOCC3)n2)c2nc(-c3cccc(C(F)(F)F)c3)ccc21` [Compound 563], for which the Emax was more than 200% and the EC1.5 entry is recorded as “A (EC1.5<1.0 μM)”.

As for `Cc1cccnc1NC(=O)N1CCCOc2ccc(-c3cccc(Cl)c3)nc21` [Compound 871], the EC1.5 (concentration giving 1.5-fold activation) was more than 25 µM and the Emax was not above 200%.

For the molecule `O=C(Nc1ccncn1)N1CCCOc2ccc(-c3cccc(N4CCCC4)c3)nc21` [Compound 627], the Emax was more than 200% and the EC1.5 entry is “B (EC1.5 1-25 μM)”.

As for `CN1CCN(C(=O)Nc2cncnc2)c2nc(-c3cccc(C(F)(F)F)c3)ccc21` [Compound 536], the Emax is more than 200% and the EC1.5 result is listed as “A (EC1.5<1.0 μM)”.

Take `Cc1cc(-c2ccc3c(n2)N(C(=O)Nc2cc(C)nc(C)c2)CCCO3)ccn1` [Compound 657]: the Emax is more than 200% and the EC1.5 entry is “B (EC1.5 1-25 μM)”.

Regarding `Cc1cc(C)nc(NC(=O)N2CCOc3cnc(-c4cccc(C(F)(F)F)c4)nc32)c1` [Compound 712], the EC1.5 (concentration giving 1.5-fold activation) is more than 25 µM and the Emax was not above 200%.

Turning to `O=C(Nc1ccncc1)N1CCOc2c(N3CCCC3)nc(-c3cccc(F)c3)nc21` [Compound 737], the EC1.5 (concentration giving 1.5-fold activation) was more than 25 µM and the Emax was not above 200%.

`Cc1cncc(NC(=O)N2CCOc3ncc(-c4cccc(C(F)(F)F)c4)nc32)c1` [Compound 725]: the EC1.5 (concentration giving 1.5-fold activation) was 1 to 25 µM and the Emax was more than 200%.

For `O=C(Nc1ccncn1)N1CCOc2ccc(-c3cccnc3)nc21` [Compound 516], the Emax was not above 200% and the EC1.5 entry is listed as “C (EC1.5>25 μM)”.

For `CC1(C)CCN(C(=O)Nc2ccncc2)c2nc(-c3cccc(C(F)(F)F)c3)ccc21` [Compound 826, 4,4-dimethyl-N-(pyridin-4-yl)-7-(3-(trifluoromethyl)phenyl)-3,4-dihydro-1,8-naphthyridine-1(2H)-carboxamide], the EC1.5 (concentration giving 1.5-fold activation) is less than 1 µM and the Emax is more than 200%.

`Cc1ccc(-c2ccc3c(n2)N(C(=O)Nc2nc(C)cs2)CCCO3)cn1` [Compound 680]: the Emax was more than 200% and the EC1.5 entry is listed as “B (EC1.5 1-25 μM)”.

`O=C(Nc1ccnc2cccnc12)N1CCCOc2ccc(-c3cccc(Cl)c3)nc21` [Compound 884]: the EC1.5 (concentration giving 1.5-fold activation) was in the range of 1 to 25 µM and the Emax is more than 200%.

Consider `O=C(Nc1cccc(OC[C@H](O)CO)n1)N1CCCc2ccc(-c3ccc4c(c3)CCO4)nc21` [Compound 702], for which the EC1.5 (concentration giving 1.5-fold activation) was less than 1 µM and the Emax was more than 200%.

Consider `O=C(Nc1cccc(OCC(O)CO)c1)N1CCC(F)(F)c2ccc(-c3cccc(C(F)(F)F)c3)nc21` (stereo not drawn) [Compound 841], for which the EC1.5 (concentration giving 1.5-fold activation) is less than 1 µM and the Emax is more than 200%.

As to `O=C(Nc1ccccn1)N1CCCCc2ccc(-c3cccc(Cl)c3)nc21` [Compound 754], the EC1.5 (concentration giving 1.5-fold activation) fell in the range of 1 to 25 µM and the Emax was not above 200%.

On to `O=C(Nc1ccccn1)N1CCC(F)(F)c2ccc(-c3cccc(C(F)(F)F)c3)nc21` [Compound 814, 4,4-difluoro-N-(pyridin-2-yl)-7-(3-(trifluoromethyl)phenyl)-3,4-dihydro-1,8-naphthyridine-1(2H)-carboxamide], for which the EC1.5 (concentration giving 1.5-fold activation) is more than 25 µM and the Emax was not above 200%.

In the case of `O=C(Nc1cccnn1)N1CCCOc2ccc(-c3cccc(Cl)c3)nc21` [Compound 867], the EC1.5 (concentration giving 1.5-fold activation) fell in the range of 1 to 25 µM and the Emax was more than 200%.

For the molecule `O=C(Nc1ccncc1)N1CCCC(F)(F)c2ccc(-c3cccc(Cl)c3)nc21` [Compound 770], the EC1.5 (concentration giving 1.5-fold activation) was more than 25 µM and the Emax was not above 200%.

Regarding `CCN1C(=O)CCN(C(=O)Nc2ccnc(OC)n2)c2nc(-c3cccc(Cl)c3)ccc21` [Compound 792], the EC1.5 (concentration giving 1.5-fold activation) is more than 25 µM and the Emax was not above 200%.

With `Cc1cc(NC(=O)N2CCCC(=O)c3ccc(-c4cccc(C(F)(F)F)c4)nc32)ccn1` [Compound 820], the EC1.5 (concentration giving 1.5-fold activation) is less than 1 µM and the Emax is more than 200%.

For the molecule `O=C(Nc1ccccn1)N1CCCOc2ccc(-c3cccc(Cl)c3)nc21` [Compound 761], the EC1.5 (concentration giving 1.5-fold activation) lay in the range of 1 to 25 µM and the Emax is more than 200%.

With `O=C(Nc1ncccn1)N1CCCc2ccc(-c3cccc(C(F)(F)F)c3)nc21` [Compound 666], the Emax was more than 200% and the EC1.5 result is on record as “A (EC1.5<1.0 μM)”.

Turning to `O=C(Nc1ccncc1)N1CCCc2ccc(-c3cccc(Cl)c3)nc21` [Compound 651], the Emax was more than 200% and the EC1.5 entry is “A (EC1.5<1.0 μM)”.

Take `Cc1cnccc1NC(=O)N1CCCOc2ccc(-c3cccc(Cl)c3)nc21` [Compound 855]: the EC1.5 (concentration giving 1.5-fold activation) is 1 to 25 µM and the Emax is not above 200%.

As for `O=C(Nc1cncc(F)c1)N1CCCOc2ccc(-c3cccc(Cl)c3)nc21` [Compound 853], the EC1.5 (concentration giving 1.5-fold activation) was in the range of 1 to 25 µM and the Emax is more than 200%.

For the molecule `O=C(Nc1cccc(OC[C@H](O)CO)n1)N1CCCC(F)(F)c2ccc(-c3cccc(Cl)c3)nc21` [Compound 781], the EC1.5 (concentration giving 1.5-fold activation) was in the range of 1 to 25 µM and the Emax was more than 200%.

Take `Cc1cnccc1NC(=O)N1CCC(C)(C)c2ccc(-c3cccc(C(F)(F)F)c3)nc21` [Compound 834, 4,4-dimethyl-N-(3-methylpyridin-4-yl)-7-(3-(trifluoromethyl)phenyl)-3,4-dihydro-1,8-naphthyridine-1(2H)-carboxamide]: the EC1.5 (concentration giving 1.5-fold activation) was 1 to 25 µM and the Emax is not above 200%.

With `O=C(Nc1ccccn1)N1CCCc2ccc(-c3cccc(F)c3)nc21` [Compound 649], the Emax was more than 200% and the EC1.5 entry is given as “A (EC1.5<1.0 μM)”.

With `COc1nccc(NC(=O)N2CCCOc3ccc(-c4cccc(Cl)c4)nc32)n1` [Compound 854], the EC1.5 (concentration giving 1.5-fold activation) fell in the range of 1 to 25 µM and the Emax was more than 200%.

In the case of `CN1C(=O)CN(C(=O)Nc2ncco2)c2nc(-c3cccc(C(F)(F)F)c3)ccc21` [Compound 523], the Emax is not above 200% and the EC1.5 entry is listed as “C (EC1.5>25 μM)”.

For the molecule `O=C(Nc1ncccn1)N1CCCc2ccc(-c3cccc(Cl)c3)nc21` [Compound 667], the Emax is more than 200% and the EC1.5 entry is “B (EC1.5 1-25 μM)”.

In the case of `Cn1nccc1NC(=O)N1CCCOc2ccc(-c3cccc(Cl)c3)nc21` [Compound 706], the EC1.5 (concentration giving 1.5-fold activation) was more than 25 µM and the Emax was not above 200%.

`O=C(Nc1ccc(F)cn1)N1CCCCc2ccc(-c3cccc(C(F)(F)F)c3)nc21` [Compound 816]: the EC1.5 (concentration giving 1.5-fold activation) is more than 25 µM and the Emax is not above 200%.

For `O=C(Nc1cccnc1)N1CCCC(F)(F)c2ccc(-c3cccc(Cl)c3)nc21` [Compound 771], the EC1.5 (concentration giving 1.5-fold activation) is more than 25 µM and the Emax is not above 200%.

As to `O=C1CCCN(C(=O)Nc2ccncc2F)c2nc(-c3cccc(Cl)c3)ccc21` [Compound 767], the EC1.5 (concentration giving 1.5-fold activation) was 1 to 25 µM and the Emax was not above 200%.

Take `CC1(C)CCN(C(=O)Nc2ncccc2F)c2nc(-c3cccc(C(F)(F)F)c3)ccc21` [Compound 842]: the EC1.5 (concentration giving 1.5-fold activation) was 1 to 25 µM and the Emax was not above 200%.

Take `O=C1CCCN(C(=O)Nc2cccnc2)c2nc(-c3cccc(Cl)c3)ccc21` [Compound 747, 2-(3-chlorophenyl)-5-oxo-N-(pyridin-3-yl)-7,8-dihydro-5H-pyrido[2,3-b]azepine-9(6H)-carboxamide]: the EC1.5 (concentration giving 1.5-fold activation) lay within 1 to 25 µM and the Emax is more than 200%.

As to `CC1(C)CN(C(=O)Nc2ccncc2)c2nc(-c3cccc(F)c3)ccc2O1` [Compound 561], the Emax is more than 200% and the EC1.5 result was “B (EC1.5 1-25 μM)”.

These data come from patent US9556201B2, “Bicyclic pyridines and analogs as sirtuin modulators” (GLAXOSMITHKLINE LLC, priority 2009, dated 2017).
